{"source": "paper PMC8465649", "about": "“Semaphorin 3A—Glycosaminoglycans Interaction as Therapeutic Target for Axonal Regeneration” (Pharmaceuticals, 2021)", "test": "Concentration-dependent 1H NMR and DOSY NMR (aggregation)", "assay_type": "physicochemical", "conditions": "DOSY NMR and spectra at increasing concentrations", "source_text": "As a simple way to characterize the GAG binding behavior, we applied the method previously described by Jiao et al., using the cationic dye known as methylene blue (MB) in a colorimetric competition assay. To compare with our previous results for SICHI, we performed similar experimental design and data analysis, using the charge excess at 50% of MB displacement (CE50) as the parameter to compare the respective binding abilities. The four peptoids rendered very similar CE50 values (CE50 = 1.5–1.8, Figure 6a), reflecting the equivalent charge states. However, CSIC02 reached saturation (complete MB displacement) with a lower number of equivalents, which can be due to its slightly larger molecular size that may cause a more efficient interference with MB binding. Next, we assessed the integrity and solubility of CSIC02 by NMR. To characterize its tendency to aggregate in aqueous solution, NMR spectra at increasing concentrations were acquired which show the same sharp signals under all conditions (Figure S13). […] Direct binding of CSIC02 to GAGs was qualitatively assessed by specific NMR experiments.\nFigure S13. Concentration-dependent NMR spectra of CSIC02 and 1H DOSY NMR spectrum of 0.2 mM CSIC02 in presence of 0.5 mM caffeine. […] The spectra were processed with MNova software and the measured diffusion coefficients from DOSY […]"}
{"smiles": "CCN(CC)CCN(CC(=O)N(CCN1CCCC1)CC(=O)N(CCC1CCCN1C)CC(N)=O)C(=O)OCc1ccccc1", "note": "(stereo not shown) [CSIC02]", "values": [{"measurement": "tendency to aggregate in aqueous solution", "result": "absence of higher molecular weight aggregates"}]}
